Earlier results as cited in patent US20140316534A1, “STENT” (Photocure ASA, priority 2011, published 2014).

Test system: dysplastic tissue in Barrett's esophagus
[1] = systemic application, higher doses of 20 mg/kg and 30 mg/kg

NCC(=O)CCC(=O)O [5-ALA, 5-amino-4-oxo-pentanoic acid]
side effects (systemic application of 20 mg/kg or more): increasing side effects at high dosages | sensitivity for detection of dysplastic tissue [1]: increase the sensitivity | specificity (rate of false positive fluorescence) [1]: poor
